According to EP0713876A1, “Triazine derivative, chymase activity inhibitor and nitric oxide production inhibitor” (Wakamoto Pharmaceutical Co., Ltd., priority 1994, dated 1996):
Marks after values point to notes of the source that are not given here.

What follows are compounds tested on ICR mice (assay: Single-dose toxicity). Settings: male ICR mice, p.o. 500 mg/kg single dose, observed for 14 days.
Type: in vivo
Method: Ten Male ICR mice (4-week-old) were housed in each group. Test compounds were suspended in 0.5% aqueous sodium methyl cellulose, and then administered p.o. at the dose of 500 mg/kg to mice. Animals were then observed for 14 days and the mortality rate was determined. […]

| SMILES | The number of death/ The number of animal |
| --- | --- |
| Cc1ncn2c([S+]([O-])Cc3ccc(Cl)cc3)nnc(OCc3ccc(Cl)cc3)c12 (stereo not drawn) [Example 53, 1-(4-chlorobenzyloxy)-4-(4-chlorobenzylsulfinyl)-8-methylimidazo[1,5-d][1.2.4]triazine] | 0/10 |
| [O-][S+](Cc1ccc(Cl)cc1)c1nnc(O)c2cccn12 (stereo not drawn) [Example 29, 4-(4-chlorobenzylsulfinyl)-1-hydroxypyrrolo[1,2-d][1.2.4]triazine] | 0/10 |
| Cc1ncn2c([S+]([O-])Cc3ccc(Cl)cc3)nn(Cc3ccc(Cl)cc3)c(=O)c12 (stereo not drawn) [Example 54, 2-(4-chlorobenzyl)-4-(4-chlorobenzylsulfinyl)-8-methyl imidazo[1,5-d][1.2.4]triazine-1(2H)-one] | 0/10 |
| [O-][S+](Cc1ccc(Cl)cc1)c1nnc(OCc2ccc(Cl)cc2)c2nccn12 (stereo not drawn) [Example 35, 8-(4-chlorobenzyloxy)-5-(4-chlorobenzylsulfinyl)imidazo[1,2-d][1.2.4]triazine] | 0/10 |
| [O-][S+](Cc1ccc(Cl)cc1)c1nnc(O)c2nccn12 (stereo not drawn) [Example 31, 5-(4-chlorobenzylsulfinyl)-8-hydroxyimidazo[1,2-d][1.2.4]triazine] | 0/10 |

The compounds below were run on mouse macrophage cell line, RAW264 (assay: Inhibition of LPS-induced nitric oxide (NO) production, nitrite by Griess reaction). Settings: 10⁻⁵ M test compound, RAW264, 1 µg/ml LPS, 36hr.
Type: cell-based
Method: The mouse macrophage cell line, RAW264, obtained from the Riken Cell Bank, was cultured in RPMI-1640 medium without phenol red containing 10% inactivated fetal bovine serum and 100 µg/ml kanamycin at 37°C in 5% CO₂ in air. Cells were seeded into 96-well tissue culture plates (6x10⁴ cells/well) and allowed to adhere for 4 hr at 37 °C . To assess the effects of test compounds on induction of NO production, 100 µl of fresh culture medium containing them were added to the medium, followed by the additions of 1 µg/ml of LPS (E Coli 055, derived from B5 cell line, DIFCO Co.) to activate macrophage cells. At the same time, cultivation was conducted in the presence or absence of a test compound.
Since the measurement of NO is difficult due to the unstableness of NO, the nitrite ion (NO₂⁻) which is the oxidation product of NO was measured.
Productions of NO were assayed by measuring the concentrations of NO₂⁻ in culture medium by the Griess reaction by the method of Green et al. (Anal. Biochem., 126, 131-138, 1982). Nitrite accumulation in the cell culture medium was measured 36hr after LPS-stimulations. One hundred microliters of Griess reagents (1% sulfanylamide and 0.1% N-1-naphthylethylenediamine dichloride in 5% phosphoric acid) were added to 100 µl of cell culture medium at a room temperature. After 10 min, the optical densities at 550 nm (OD550) were measured by using a microplate reader.
In unstimulated RAW264 macrophages, NO₂⁻ production for 36 hr was not determined in the presence or absence of test compounds. Calculations of the inhibition% of NO production by the test compounds were carried out as depicted below. Inhibition% = (1-a/b)x100(%) [formula] a; the OD550 in presence of test compound b; the OD550 in absence of test compound IC₅₀ values were expressed as the concentrations (M) of test compounds producing 50% inhibition.

| SMILES | Inhibition (%) of NO production at the concentration of 10⁻⁵ M |
| --- | --- |
| Cc1ncn2c([S+]([O-])Cc3ccc(Cl)cc3)nnc(O)c12 (stereo not drawn) [Example 33, 4-(4-chlorobenzylsulfinyl)-1-hydroxy-8-methyl imidazo [1,5-d][1.2.4]triazine] | 4 * % |
| [O-][S+](Cc1ccc(Cl)cc1)c1nnc(OCc2ccc(Cl)cc2)c2nccn12 (stereo not drawn) [Example 35, 8-(4-chlorobenzyloxy)-5-(4-chlorobenzylsulfinyl)imidazo[1,2-d][1.2.4]triazine] | 20 * % |
| N#Cc1ccc(COc2nnc([S+]([O-])Cc3ccc(C#N)cc3)n3ccnc23)cc1 (stereo not drawn) [Example 41, 8-(4-cyanobenzyloxy)-5-(4-cyanobenzylsulfinyl)imidazo[1,2-d][1.2.4]triazine] | 49 * % |
| [O-][S+](Cc1ccc(C(F)(F)F)cc1)c1nnc(OCc2ccc(C(F)(F)F)cc2)c2nccn12 (stereo not drawn) [Example 42, 8-(4-trifluoromethylbenzyloxy)-5-(4-trifluoromethylbenzylsulfinyl)imidazo[1,2-d][1.2.4]triazine] | 8 * % |
| [O-][S+](Cc1ccc(Cl)cc1)c1nnc(OCc2ccc(Cl)cc2)c2cccn12 (stereo not drawn) [Example 36, 1-(4-chlorobenzyloxy)-4-(4-chlorobenzylsulfinyl)pyrrolo [1,2-d][1.2.4]triazine] | 31 * % |
| [O-][S+](Cc1cccc(Cl)c1)c1nnc(OCc2cccc(Cl)c2)c2nccn12 (stereo not drawn) [Example 40, 8-(3-chlorobenzyloxy)-5-(3-chlorobenzylsulfinyl)imidazo[1,2-d][1.2.4]triazine] | 32 * % |

The compounds below were run against T1, rat mast cell chymase (Rattus norvegicus, UniProt P09650) (assay: Inhibition of chymase activity (chromogenic substrate N-Suc-Ala-Ala-Pro-Phe-p-nitroanilide)). Settings: 10⁻⁵ M test compound.
T1 construct: Chymase was partially purified from rat peritoneal cavity mast cells; from tissue; host or cells: peritoneal cavity mast cells of male Sprague Dawley rats
T1 sequence (P09650 21-260): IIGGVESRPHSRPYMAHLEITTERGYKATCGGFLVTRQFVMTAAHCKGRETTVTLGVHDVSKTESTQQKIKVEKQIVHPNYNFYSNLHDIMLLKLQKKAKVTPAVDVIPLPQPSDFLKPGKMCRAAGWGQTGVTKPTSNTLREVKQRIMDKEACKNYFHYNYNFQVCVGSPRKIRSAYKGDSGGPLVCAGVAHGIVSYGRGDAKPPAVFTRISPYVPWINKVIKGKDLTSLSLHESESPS
Type: biochemical
Method: Mast cells were obtained from the peritoneal cavity of male Sprague Dawley(SD) rats by the method of Graziano et al. (Methods in Enzymol., 162, 501-514, 1988), layered on 75% Percoll (Pharmacia Biotech), and then purified to over 90% purity by centrifugation at 150xG for 15 min.
Chymase was partially purified from rat peritoneal cavity mast cells by the method of Kido et al. (Arch. Biochem. Biophys., 239, 436-443, 1985). Purified mast cells were quickly frozen and thawed several times and homogenized in a low ionic strength-buffer (pH6.5). The homogenate was centrifuged at 20,000xG for 20 min. The precipitate was re-homogenized in a high ionic strength-buffer (pH8.0) and cetrifuged at 20,000xG for 20 min. The supernatant was recovered and the enzyme was extracted. From the crude extract, chymase was partially purified by an Octyl-Sepharose CL-4B (Pharmacia Biotech) hydrophobic chromatography.
Ten microliters of test compounds in dimethyl sulfoxide (DMSO) were mixed with 250 µl of 60 mM Tris-HCl buffer (pH8.0) containing 0.2 M NaCl and 250 µl of 1 µg/ml chymase in buffer. The mixtures were pre-incubated for 5 min. at 37°C . After the addition of 500 µl of 0.6 mM chromogenic substrate, N-Suc-Ala-Ala-Pro-Phe-p-nitroanilide (Sigma), the reactions were carried out for 30 min. at 37 °C , and then stopped by the addition of 50 µl of 0.75 M acetic acid. The absorbances at 405nm were measured in a spectrophotometer, and the amount of p-nitroaniline released from the substrate was measured.
Calculations of the inhibition% of chymase by test compounds were carried out as below. Inhibition% = {1-(a-a' )/(b-b' ) } x 100 (%) [formula] a; the absorbance in presence of test compound. a'; the absorbance of non-reaction in presence of test compound. b; the absorbance in absence of test compound. b'; the absorbance of non-reaction in absence of test compound.
IC₅₀ values were expressed as the concentrations (M) of test compounds producing 50% inhibition.

| SMILES | Inhibition (%) of chymase at a concentration of 10⁻⁵ M |
| --- | --- |
| CCOc1nnc([S+]([O-])CC)n2ccnc12 (stereo not drawn) [Example 46, 8-ethoxy-5-ethylsulfinylimidazo[1,2-d][1.2.4]triazine] | 5 % * |
| CCn1nc([S+]([O-])CC)n2cnc(C)c2c1=O (stereo not drawn) [Example 56, 2-ethyl-4-ethylsulfinyl-8-methylimidazo[1,5-d][1.2.4]triazine-1(2H)-one] | 8% * |
| CCOc1nnc([S+]([O-])CC)n2cnc(C)c12 (stereo not drawn) [Example 55, 1-ethoxy-4-ethylsulfinyl-8-methylimidazo[1,5-d][1.2.4]triazine] | 22% * |
| CC(C)c1ccc(COc2nnc([S+]([O-])Cc3ccc(C(C)C)cc3)n3ccnc23)cc1 (stereo not drawn) [Example 38, 8-(4-isopropylbenzyloxy)-5-(4-isopropylbenzylsulfinyl) imidazo[1,2-d][1,2,4]triazine] | 41% * |
| CCOC(=O)COc1nnc([S+]([O-])CC(=O)OCC)n2ccnc12 (stereo not drawn) [Example 52, 8-ethoxycarbonylmethyloxy-5-ethoxycarbonylmeth ylsulfinylimidazo[1,2-d][1.2.4]triazine] | 39% * |
| [O-][S+](Cc1ccc(C(F)(F)F)cc1)c1nnc(OCc2ccc(C(F)(F)F)cc2)c2nccn12 (stereo not drawn) [Example 42, 8-(4-trifluoromethylbenzyloxy)-5-(4-trifluoromethylbenzylsulfinyl)imidazo[1,2-d][1.2.4]triazine] | 11%* |
| [O-][S+](CCCCl)c1nnc(OCCCCl)c2nccn12 (stereo not drawn) [Example 51, 8-(3-chloropropoxy)-5-(3-chloropropyl)sulfinylimidazo[1,2-d][1.2.4]triazine] | 50% * |
